Assay results reported in US10457707B2, “Substituted urea depsipeptide analogs as activators of the CLPP endopeptidase” (priority 2015, dated 2019).
In brackets after ≈: the same amount, converted by molar mass. *1 amine or outer side, *2 acyl side, *3 side chain or, on linkers, in order; H or OH if unused. Where a SMILES comes first, the peptide text is derived from it. Bridges are numbered along the chain shown (N, C = ends). [ ]: non-standard residue; d: D form. The star is where a group is joined. NH(1,3-benzodioxol-5-yl) = c1cc2c(cc1N*)OCO2; Phe(3,5-F2) = N[C@@H](Cc1cc(F)cc(F)c1)C(=O)O; Morpholine(3S-CO) = O=C(O)[C@@H]1COCCN1; Pro(4R-Me) = C[C@H]1CN[C@H](C(=O)O)C1; NH(3,4-Me2-phenyl) = Cc1ccc(N*)cc1C; Hyp = O=C(O)[C@@H]1C[C@@H](O)CN1; NH(4-Et-phenyl) = CCc1ccc(N*)cc1; aThr = C[C@H](O)[C@H](N)C(=O)O; Pip = O=C(O)[C@@H]1CCCCN1; CO = O=C([*:1])[*:2]

Experiments:
Assay type in all cases: cell-based
[1] = tested on: Staphylococcus aureus, USA 300; test: Minimal inhibitory concentration assay; conditions: USA300, read-out: Minimal Inhibitory Concentrations S. aureus USA 300
Method in brief: (§1)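 CLSI broth microdilution; 2-fold series from 200 μM final; inoculum ~10^5 cfu/mL; 37 °C, aerobic, overnight; visual MIC = lowest conc. without growth. The ClpP-inactivated USA 300 strain is the comparator for ClpP-dependent killing.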

[2] = tested on: Staphylococcus aureus, USA 300 wherein ClpP is inactivated; test: Minimal inhibitory concentration assay
Method in brief: as §1

[3] = tested on: Streptococcus pneumoniae, R6; test: Minimal inhibitory concentration assay; conditions: read-out: Minimal Inhibitory Concentrations S. pneumoniae R6
Method in brief: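 Microbroth dilution with two-fold serial compound dilutions in broth, incubated aerobically overnight at 37° C. MIC taken as the lowest concentration preventing bacterial growth.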

[4] = Cytotoxicity assay (CellTiter-Glo cell viability, 72 hours); conditions: African green monkey
Method in brief: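 Vero cells, 5000/well, grown overnight at 37° C, 5% CO2 in DMEM with 10% FBS, then exposed to serial compound dilutions or DMSO for 72 hours. Viability read by CellTiter-Glo luminescence. IC50 from duplicate wells, reported as range over two independent experiments.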

[5] = tested on: Enterococcus faecalis, ATCC 33186; test: Minimal inhibitory concentration assay (microbroth dilution); conditions: Enterococcus faecalis, ATCC33186; read-out: Minimal Inhibitory Concentrations E. faecalis ATCC 33186
Method in brief: as §1

Which results are given for CCc1ccc(NC(=O)N[C@@H](Cc2cc(F)cc(F)c2)C(=O)N[C@@H]2C(=O)N3C[C@H](O)C[C@H]3C(=O)N3CCCC[C@H]3C(=O)N[C@@H](C)C(=O)N3C[C@H](C)C[C@H]3C(=O)O[C@H]2C)cc1 [Compound 211, (S)-3-(3,5-difluorophenyl)-2-(3-(4-ethylphenyl)ureido)-N-((2R,6S,8aS,14aS,16R,20S,21S,23aS)-16-hydroxy-2,6,21-trimethyl-5,8,14,19,23-pentaoxooctadecahydro-1H,5H,14H,19H-pyrido[2,1-i]dipyrrolo[2,1-c:2′,1′-l][1]oxa[4,7,10,13]tetraazacyclohexadecin-20-yl)propanamide] ({NH(4-Et-phenyl)-CO}-[Phe(3,5-F2)][aThr][Hyp][Pip]A[Pro(4R-Me)]; ester 2-C)?
MIC [1]: 0.04 µM (≈ 0.0335 µg/mL); Minimal Inhibitory Concentrations S. aureus USA 300 ΔClpP [2]: >200 µM; MIC [3]: 5 nM (≈ 0.00419 µg/mL)

With C[C@@H]1C[C@H]2C(=O)OC[C@H](NC(=O)[C@H](Cc3cc(F)cc(F)c3)NC(=O)Nc3ccc4c(c3)OCO4)C(=O)N3C[C@H](O)C[C@H]3C(=O)N3CCOC[C@H]3C(=O)N[C@@H](C)C(=O)N2C1 [Compound 318, (S)-2-(3-(benzo[d][1,3]dioxol-5-yl)ureido)-3-(3,5-difluorophenyl)-N-((6aS,8R,12S,15aS,17R,21S,23aS)-8-hydroxy-17,21-dimethyl-6,11,15,20,23-pentaoxooctadecahydro-6H,11H,15H-[1,4]oxazino[3,4-i]dipyrrolo[2,1-c:2′,1′-l][1]oxa[4,7,10,13]tetraazacyclo-hexadecin-12-yl)propanamide] ({NH(1,3-benzodioxol-5-yl)-CO}-[Phe(3,5-F2)]S[Hyp][Morpholine(3S-CO)]A[Pro(4R-Me)]; ester 2-C) as the compound, how does the MIC [1] read?
Its MIC is 100 µM (≈ 84.2 µg/mL).

And the IC50 at 72 h [4]?
The IC50 at 72 h was greater than 100 µM.

What about the MIC [5] of the same compound?
The MIC was greater than 20 µM.

For Cc1ccc(NC(=O)N[C@@H](Cc2cc(F)cc(F)c2)C(=O)N[C@@H]2C(=O)N3C[C@H](O)C[C@H]3C(=O)N3CCCC[C@H]3C(=O)N[C@@H](C)C(=O)N3C[C@H](C)C[C@H]3C(=O)O[C@H]2C)cc1C [Compound 212, (S)-3-(3,5-difluorophenyl)-2-(3-(3,4-dimethylphenyl)ureido)-N-((2R,6S,8aS,14aS,16R,20S,21S,23aS)-16-hydroxy-2,6,21-trimethyl-5,8,14,19,23-pentaoxooctadecahydro-1H,5H,14H,19H-pyrido[2,1-i]dipyrrolo[2,1-c:2′,1′-l][1]oxa[4,7,10,13]tetraazacyclohexadecin-20-yl)propanamide] ({NH(3,4-Me2-phenyl)-CO}-[Phe(3,5-F2)][aThr][Hyp][Pip]A[Pro(4R-Me)]; ester 2-C), which MIC [1] is on record?
Its MIC is 0.1 µM (≈ 0.0838 µg/mL).

And the “Minimal Inhibitory Concentrations S. aureus USA 300 ΔClpP” value [2]?
The value was greater than 200 µM.

What about the MIC [3] of the same compound?
The MIC was 2 nM (≈ 0.00168 µg/mL).

For Cc1ccc(NC(=O)N[C@@H](Cc2cc(F)cc(F)c2)C(=O)N[C@@H]2C(=O)N3C[C@H](O)C[C@H]3C(=O)N3CCOC[C@H]3C(=O)N[C@@H](C)C(=O)N3C[C@H](C)C[C@H]3C(=O)O[C@H]2C)cc1C [Compound 215, (S)-3-(3,5-difluorophenyl)-2-(3-(3,4-dimethylphenyl)ureido)-N-((6aS,8R,12S,13S,15aS,17R,21S,23aS)-8-hydroxy-13,17,21-trimethyl-6,11,15,20,23-pentaoxooctadecahydro-6H,11H,15H-[1,4]oxazino[3,4-i]dipyrrolo[2,1-c:2′,1′-l][1]oxa[4,7,10,13]tetraazacyclohexadecin-12-yl)propanamide] ({NH(3,4-Me2-phenyl)-CO}-[Phe(3,5-F2)][aThr][Hyp][Morpholine(3S-CO)]A[Pro(4R-Me)]; ester 2-C), which MIC [1] is on record?
Its MIC is 0.8 µM (≈ 0.672 µg/mL).

And the MIC [3]?
The MIC was less than 200 nM.
